In article PMC9090415, “Discovery of small molecule inhibitors of Plasmodium falciparum apicoplast DNA polymerase” (Journal of Enzyme Inhibition and Medicinal Chemistry, 2022):
Like-named read-outs stand apart in the source and are kept apart here.

Target: P. falciparum apicoplast DNA polymerase (Pf-apPOL) (Plasmodium falciparum, UniProt Q8ILY1)
Assay: Fluorescence-based high-throughput DNA polymerase assay (molecular beacon), primary screen and dose-response
Type: biochemical
Details: for DNA Pol: 90 min, 10 µM; for % inhibition apPOL 180' 2.5 / % inhibition apPOL 180' 5 / % inhibition apPOL 180' 10 / % inhibition apPOL 180' 20 / % inhibition apPOL 180' 40 / % inhibition apPOL 180' 80: read at 180'
How it was run: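 Single-point screening used 10 µM compound with 20 nM polymerase, 20 nM hairpin substrate and 6 µM dNTPs for 90 min at 25 °C. Confirmatory titrations (2.5–80 µM) followed fluorescence at three times, and IC50 was derived from a fit including a cooperativity term n.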

Chain of P. falciparum apicoplast DNA polymerase (Pf-apPOL) (Q8ILY1 entry or part of it): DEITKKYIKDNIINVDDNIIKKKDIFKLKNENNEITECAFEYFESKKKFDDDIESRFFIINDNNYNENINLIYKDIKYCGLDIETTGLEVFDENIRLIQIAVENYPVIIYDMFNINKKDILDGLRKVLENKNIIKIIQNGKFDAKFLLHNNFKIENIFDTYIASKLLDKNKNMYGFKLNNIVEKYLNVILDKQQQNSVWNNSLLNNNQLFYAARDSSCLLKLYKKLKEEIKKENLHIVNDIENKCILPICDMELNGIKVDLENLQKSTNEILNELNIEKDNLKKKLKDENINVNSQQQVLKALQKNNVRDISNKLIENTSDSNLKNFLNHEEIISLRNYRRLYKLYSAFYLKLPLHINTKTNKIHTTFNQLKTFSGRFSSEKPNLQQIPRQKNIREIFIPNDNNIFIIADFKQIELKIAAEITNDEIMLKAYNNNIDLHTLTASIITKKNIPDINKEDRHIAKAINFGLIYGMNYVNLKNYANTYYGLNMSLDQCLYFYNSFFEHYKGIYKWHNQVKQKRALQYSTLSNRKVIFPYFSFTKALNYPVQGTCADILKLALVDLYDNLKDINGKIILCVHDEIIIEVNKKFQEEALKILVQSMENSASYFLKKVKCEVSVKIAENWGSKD

Compound: O=C(Cn1ccc2c(=O)[nH]ccc21)Nc1cc(F)ccc1F [Molecule 42, O=C(Cn1ccc2c1cc[nH]c2=O)Nc1cc(F)ccc1F]
- DNA Pol ('DNA Pol' of the 186 hits list (primary screen value)): 40
- DNA Pol (DNA Pol (primary screen value)): 40
- % inhibition Apo pol 10' (DRC-1, concentration 2.5): -0.6304%
- % inhibition Apo pol 10' (DRC-1, concentration 5): 13.4677%
- % inhibition Apo pol 10' (DRC-1, concentration 10): 49.4515%
- % inhibition Apo pol 10' (DRC-1, concentration 20): 62.1247%
- % inhibition Apo pol 10' (DRC-1, concentration 40): 77.421%
- % inhibition Apo pol 10' (DRC-1, concentration 80): 76.1541%
- % inhibition Apol 90' (DRC-1, concentration 2.5): -3.25%
- % inhibition Apol 90' (DRC-1, concentration 5): 4.148%
- % inhibition Apol 90' (DRC-1, concentration 10): 35.5527%
- % inhibition Apol 90' (DRC-1, concentration 20): 52.2284%
- % inhibition Apol 90' (DRC-1, concentration 40): 71.4461%
- % inhibition Apol 90' (DRC-1, concentration 80): 77.7263%
- % inhibition apPOL 180' (DRC-1, concentration 2.5): -7.978%
- % inhibition apPOL 180' (DRC-1, concentration 5): -3.837%
- % inhibition apPOL 180' (DRC-1, concentration 10): 18.2291%
- % inhibition apPOL 180' (DRC-1, concentration 20): 34.5428%
- % inhibition apPOL 180' (DRC-1, concentration 40): 57.1907%
- % inhibition apPOL 180' (DRC-1, concentration 80): 71.3539%
- % inhibition Apo pol 5' (DRC-2, concentration 2.5): 3.65%
- % inhibition Apo pol 5' (DRC-2, concentration 5): 11%
- % inhibition Apo pol 5' (DRC-2, concentration 10): 31%
- % inhibition Apo pol 5' (DRC-2, concentration 20): 40%
- % inhibition Apo pol 5' (DRC-2, concentration 40): 37%
- % inhibition Apo pol 5' (DRC-2, concentration 80): 27%
- % inhibition Apol 40' (DRC-2, concentration 2.5): 2.11%
- % inhibition Apol 40' (DRC-2, concentration 5): 13%
- % inhibition Apol 40' (DRC-2, concentration 10): 36%
- % inhibition Apol 40' (DRC-2, concentration 20): 54%
- % inhibition Apol 40' (DRC-2, concentration 40): 58%
- % inhibition Apol 40' (DRC-2, concentration 80): 54%
- % inhibition ApPOL 90' (DRC-2, concentration 2.5): 0.827%
- % inhibition ApPOL 90' (DRC-2, concentration 5): 10%
- % inhibition ApPOL 90' (DRC-2, concentration 10): 34%
- % inhibition ApPOL 90' (DRC-2, concentration 20): 54%
- % inhibition ApPOL 90' (DRC-2, concentration 40): 60%
- % inhibition ApPOL 90' (DRC-2, concentration 80): 59%
- % inhibition apPOL 180' (DRC-2, concentration 2.5): -5%
- % inhibition apPOL 180' (DRC-2, concentration 5): 4.53%
- % inhibition apPOL 180' (DRC-2, concentration 10): 24%
- % inhibition apPOL 180' (DRC-2, concentration 20): 46%
- % inhibition apPOL 180' (DRC-2, concentration 40): 59%
- % inhibition apPOL 180' (DRC-2, concentration 80): 62%

Compound: C#CC(C=CC)OC(=O)c1ccccc1C(=O)O (stereo not shown) [Molecule 61, CC=CC(OC(=O)c1ccccc1C(=O)O)C#C]
- DNA Pol (186 hits, DNA Pol (screen value), unit not given): 84
- DNA Pol ('DNA Pol' (screen value), unit not given): 84
- % inhibition Apo pol 10' 2.5 (DRC-1, read at 10', concentration 2.5): 8.856%
- % inhibition Apo pol 10' 5 (DRC-1, read at 10', concentration 5): 15.4135%
- % inhibition Apo pol 10' 10 (DRC-1, read at 10', concentration 10): 32.6686%
- % inhibition Apo pol 10' 20 (DRC-1, read at 10', concentration 20): 51.5021%
- % inhibition Apo pol 10' 40 (DRC-1, read at 10', concentration 40): 73.1045%
- % inhibition Apo pol 10' 80 (DRC-1, read at 10', concentration 80): 83.6168%
- % inhibition Apol 90' 2.5 (DRC-1, read at 90', concentration 2.5): 1.5571%
- % inhibition Apol 90' 5 (DRC-1, read at 90', concentration 5): 4.145%
- % inhibition Apol 90' 10 (DRC-1, read at 90', concentration 10): 16.9852%
- % inhibition Apol 90' 20 (DRC-1, read at 90', concentration 20): 30.9577%
- % inhibition Apol 90' 40 (DRC-1, read at 90', concentration 40): 54.6934%
- % inhibition Apol 90' 80 (DRC-1, read at 90', concentration 80): 70.5531%
- % inhibition apPOL 180' 2.5 (DRC-1, concentration 2.5): -3.738%
- % inhibition apPOL 180' 5 (DRC-1, concentration 5): -3.151%
- % inhibition apPOL 180' 10 (DRC-1, concentration 10): 5.1086%
- % inhibition apPOL 180' 20 (DRC-1, concentration 20): 14.9685%
- % inhibition apPOL 180' 40 (DRC-1, concentration 40): 36.8949%
- % inhibition apPOL 180' 80 (DRC-1, concentration 80): 55.2706%
- % inhibition Apo pol 5' (DRC-2, concentration 80): 57%
- % inhibition Apol 40' (DRC-2, concentration 80): 69%
- % inhibition ApPOL 90' (DRC-2, concentration 20): 48%
- % inhibition ApPOL 90' (DRC-2, concentration 40): 57%
- % inhibition apPOL 180' (DRC-2, concentration 2.5): -4%
- % inhibition apPOL 180' (DRC-2, concentration 5): -4%
- % inhibition apPOL 180' (DRC-2, concentration 40): 48%
- % inhibition apPOL 180' (DRC-2, concentration 80): 69%
- % inhibition Apo pol 5' 2.5 (DRC-2, read at 5', concentration 2.5): 3.3%
- % inhibition Apo pol 5' 5 (DRC-2, read at 5', concentration 5): 15%
- % inhibition Apo pol 5' 10 (DRC-2, read at 5', concentration 10): 33%
- % inhibition Apo pol 5' 20 (DRC-2, read at 5', concentration 20): 50%
- % inhibition Apo pol 5' 40 (DRC-2, read at 5', concentration 40): 54%
- % inhibition Apo pol 5' 80 (DRC-2, read at 5', concentration 80): 57%
- % inhibition Apol 40' 2.5 (DRC-2, read at 40', concentration 2.5): 3%
- % inhibition Apol 40' 5 (DRC-2, read at 40', concentration 5): 11%
- % inhibition Apol 40' 10 (DRC-2, read at 40', concentration 10): 31%
- % inhibition Apol 40' 20 (DRC-2, read at 40', concentration 20): 52%
- % inhibition Apol 40' 40 (DRC-2, read at 40', concentration 40): 59%
- % inhibition Apol 40' 80 (DRC-2, read at 40', concentration 80): 69%
- % inhibition ApPOL 90' 2.5 (DRC-2, read at 90', concentration 2.5): 0.76%
- % inhibition ApPOL 90' 5 (DRC-2, read at 90', concentration 5): 5.31%
- % inhibition ApPOL 90' 10 (DRC-2, read at 90', concentration 10): 26%
- % inhibition ApPOL 90' 20 (DRC-2, read at 90', concentration 20): 48%
- % inhibition ApPOL 90' 40 (DRC-2, read at 90', concentration 40): 57%
- % inhibition ApPOL 90' 80 (DRC-2, read at 90', concentration 80): 71%
- % inhibition apPOL 180' 2.5 (DRC-2, concentration 2.5): -4%
- % inhibition apPOL 180' 5 (DRC-2, concentration 5): -4%
- % inhibition apPOL 180' 10 (DRC-2, concentration 10): 13%
- % inhibition apPOL 180' 20 (DRC-2, concentration 20): 35%
- % inhibition apPOL 180' 40 (DRC-2, concentration 40): 48%
- % inhibition apPOL 180' 80 (DRC-2, concentration 80): 69%

Compound: COc1ccc(CNC(=O)Cn2nc3c(c2NC(=O)Cc2cccs2)CSC3)cc1 [Molecule 55]
- IC50 (read-out: IC50 Pf-apPOL, Table 2): 10 ± 2 µM
- IC50 (supplemental file 2, sheet IC50 nontoxic compounds, Pf-apPOL): 10.5 µM

Compound: Cc1ccc(NC(=O)Cn2ccc3c(=O)[nH]ccc32)cc1F [Molecule 48, O=C(Cn1ccc2c1cc[nH]c2=O)Nc1ccc(c(c1)F)C]
- DNA Pol ("DNA Pol" of the 186 hits list (screen value)): 27
- % inhibition Apo pol 10' (DRC-1, concentration 2.5): 0.4313%
- % inhibition Apo pol 10' (DRC-1, concentration 5): 4.695%
- % inhibition Apo pol 10' (DRC-1, concentration 10): 32.4815%
- % inhibition Apo pol 10' (DRC-1, concentration 20): 59.9779%
- % inhibition Apo pol 10' (DRC-1, concentration 40): 70.0783%
- % inhibition Apo pol 10' (DRC-1, concentration 80): 79.5186%
- % inhibition Apol 90' (DRC-1, concentration 2.5): -2.985%
- % inhibition Apol 90' (DRC-1, concentration 5): -1.632%
- % inhibition Apol 90' (DRC-1, concentration 10): 21.1063%
- % inhibition Apol 90' (DRC-1, concentration 20): 47.267%
- % inhibition Apol 90' (DRC-1, concentration 40): 60.3661%
- % inhibition Apol 90' (DRC-1, concentration 80): 79.6602%
- % inhibition apPOL 180' (DRC-1, concentration 2.5): -5.068%
- % inhibition apPOL 180' (DRC-1, concentration 5): -4.79%
- % inhibition apPOL 180' (DRC-1, concentration 10): 10.5149%
- % inhibition apPOL 180' (DRC-1, concentration 20): 31.5724%
- % inhibition apPOL 180' (DRC-1, concentration 40): 45.3289%
- % inhibition apPOL 180' (DRC-1, concentration 80): 73.7679%
- % inhibition Apo pol 5' (DRC-2, concentration 2.5): -5.29%
- % inhibition Apo pol 5' (DRC-2, concentration 5): 3%
- % inhibition Apo pol 5' (DRC-2, concentration 10): 22%
- % inhibition Apo pol 5' (DRC-2, concentration 20): 44%
- % inhibition Apo pol 5' (DRC-2, concentration 40): 46%
- % inhibition Apo pol 5' (DRC-2, concentration 80): 38%
- % inhibition Apol 40' (DRC-2, concentration 2.5): -4.56%
- % inhibition Apol 40' (DRC-2, concentration 5): 4%
- % inhibition Apol 40' (DRC-2, concentration 10): 23%
- % inhibition Apol 40' (DRC-2, concentration 20): 57%
- % inhibition Apol 40' (DRC-2, concentration 40): 65%
- % inhibition Apol 40' (DRC-2, concentration 80): 62%
- % inhibition ApPOL 90' (DRC-2, concentration 2.5): -6.53%
- % inhibition ApPOL 90' (DRC-2, concentration 5): 2.25%
- % inhibition ApPOL 90' (DRC-2, concentration 10): 21%
- % inhibition ApPOL 90' (DRC-2, concentration 20): 56%
- % inhibition ApPOL 90' (DRC-2, concentration 40): 67%
- % inhibition ApPOL 90' (DRC-2, concentration 80): 67%
- % inhibition apPOL 180' (DRC-2, concentration 2.5): -10%
- % inhibition apPOL 180' (DRC-2, concentration 5): -4%
- % inhibition apPOL 180' (DRC-2, concentration 10): 7%
- % inhibition apPOL 180' (DRC-2, concentration 20): 49%
- % inhibition apPOL 180' (DRC-2, concentration 40): 65%
- % inhibition apPOL 180' (DRC-2, concentration 80): 69%
- DNA Pol (primary screen value, DNA Pol): 27
